Experimental data published in US8173808B2, “Substituted naphthalenyl-pyrimidine compounds” (ArQule, Inc., priority 2009, dated 2012).
Where a name gives a salt, the structure may show the parent alone.

System: not given
Assay: not given
Settings: not given

Structure (SMILES)	melting point [°C]
COc1ccc2cc(-c3ccnc(NCCc4ccc(OC)c(OC)c4)n3)cc(N3CCNCC3)c2c1 (as salt: HCl) [Compound 110, N-(3,4-dimethoxyphenethyl)-4-(6-methoxy-4-(piperazin-1-yl)naphthalen-2-yl)pyrimidin-2-amine]	138 to 140
CNc1nccc(-c2cc(NCCCNCCCN(C)C)c3cc(OC)ccc3c2)n1 [Compound 191, N′-[3-({7-methoxy-3-[2-(methylamino)pyrimidin-4-yl]-1-naphthyl}amino)propyl]-N,N-dimethylpropane-1,3-diamine]	142 to 144
COc1ccc2cc(-c3ccnc(NCCc4ccc(OC)c(OC)c4)n3)cc(N3CCN(c4ncnc5[nH]nc(Br)c45)CC3)c2c1 [Compound 179, 4-{4-[4-(3-bromo-1H-pyrazolo[3,4-d]pyrimidin-4-yl)piperazin-1-yl]-6-methoxy-2-naphthyl}-N-[2-(3,4-dimethoxyphenyl)ethyl]pyrimidin-2-amine]	130 to 133
CNc1nccc(-c2cc(NC(=O)CNCCO)c3cc(OC)ccc3c2)n1 [Compound 138, 2-((2-hydroxyethyl)amino)-N-(7-methoxy-3-(2-(methylamino)pyrimidin-4-yl)naphthalen-1-yl)acetamide]	169 to 172
COc1cccc(CCNc2nccc(-c3cc(N4CCNCC4)c4cc(OC)ccc4c3)n2)c1 [Compound 115, N-[2-(3-methoxyphenyl)ethyl]-4-(6-methoxy-4-piperazin-1-yl-2-naphthyl)pyrimidin-2-amine]	142 to 144
CNc1nccc(-c2cc(NCCCNCCCOC)c3cc(OC)ccc3c2)n1 (as salt: HCl) [Compound 190, N-{7-methoxy-3-[2-(methylamino)pyrimidin-4-yl]-1-naphthyl}-N′-(3-methoxypropyl)propane-1,3-diamine]	130 to 132
COCCCNc1nccc(-c2cc(N3CCNCC3)c3cc(OC)ccc3c2)n1 [Compound 113, 4-(6-methoxy-4-piperazin-1-yl-2-naphthyl)-N-(3-methoxypropyl)pyrimidin-2-amine]	136 to 138
COc1ccc2cc(-c3ccnc(NCCCN(C)C)n3)cc(N3CCN(c4ncnc5[nH]nc(Br)c45)CC3)c2c1 [Compound 178, N1-(4-(4-(4-(3-bromo-1H-pyrazolo[3,4-d]pyrimidin-4-yl)piperazin-1-yl)-6-methoxynaphthalen-2-yl)pyrimidin-2-yl)-N3,N3-dimethylpropane-1,3-diamine]	152 to 155
CNc1nccc(-c2cc(NCCCNc3ncnc4[nH]nc(Br)c34)c3cc(OC)ccc3c2)n1 [Compound 183, N1-(3-bromo-1H-pyrazolo[3,4-d]pyrimidin-4-yl)-N3-(7-methoxy-3-(2-(methylamino)pyrimidin-4-yl)naphthalen-1-yl)propane-1,3-diamine]	145 to 148
CNc1nccc(-c2cc(NC(=O)c3ccccc3)c3cc(OC)ccc3c2)n1 [Compound 185, N-{7-methoxy-3-[2-(methylamino)pyrimidin-4-yl]-1-naphthyl}benzamide]	201 to 203
CNc1nccc(-c2cc(NC(=O)CN(C)C)c3cc(OC)ccc3c2)n1 [Compound 137, 2-(dimethylamino)-N-(7-methoxy-3-(2-(methylamino)pyrimidin-4-yl)naphthalen-1-yl)acetamide]	70 to 73
CNc1nccc(-c2cc(NC(=O)c3ccc(C(C)(C)C)cc3)c3cc(OC)ccc3c2)n1 [Compound 184, 4-tert-butyl-N-{7-methoxy-3-[2-(methylamino)pyrimidin-4-yl]-1-naphthyl}benzamide]	231 to 232
COc1cccc(CCNc2nccc(-c3cc(N4CCN(c5ncnc6[nH]nc(Br)c56)CC4)c4cc(OC)ccc4c3)n2)c1 [Compound 180, 4-{4-[4-(3-bromo-1H-pyrazolo[3,4-d]pyrimidin-4-yl)piperazin-1-yl]-6-methoxy-2-naphthyl}-N-[2-(3-methoxyphenyl)ethyl]pyrimidin-2-amine]	200 to 203
COc1ccc2cc(-c3ccnc(N(C)C)n3)cc(NC3CCN(c4ncnc5[nH]nc(Br)c45)CC3)c2c1 [Compound 144, 4-(4-((1-(3-bromo-1H-pyrazolo[3,4-d]pyrimidin-4-yl)piperidin-4-yl)amino)-6-methoxynaphthalen-2-yl)-N,N-dimethylpyrimidin-2-amine]	167 to 172
CNc1nccc(-c2cc(NC(=O)c3ccc(C(F)(F)F)cc3)c3cc(OC)ccc3c2)n1 [Compound 187, N-{7-methoxy-3-[2-(methylamino)pyrimidin-4-yl]-1-naphthyl}-4-(trifluoromethyl)benzamide]	227 to 229
COCCCNc1nccc(-c2cc(N3CCN(c4ncnc5[nH]nc(Br)c45)CC3)c3cc(OC)ccc3c2)n1 [Compound 177, 4-{4-[4-(3-bromo-1H-pyrazolo[3,4-d]pyrimidin-4-yl)piperazin-1-yl]-6-methoxy-2-naphthyl}-N-(3-methoxypropyl)pyrimidin-2-amine]	225 to 227
CNc1nccc(-c2cc(NC(C)=O)c3cc(OC)ccc3c2)n1 [Compound 186, N-{7-methoxy-3-[2-(methylamino)pyrimidin-4-yl]-1-naphthyl}acetamide]	234 to 235
CNc1nccc(-c2cc(NC(=O)c3ccc(OC)cc3)c3cc(OC)ccc3c2)n1 [Compound 188, 4-methoxy-N-{7-methoxy-3-[2-(methylamino)pyrimidin-4-yl]-1-naphthyl}benzamide]	214 to 215
COc1ccc2cc(-c3ccnc(NCCCN(C)C)n3)cc(N3CCNCC3)c2c1 [Compound 114, N′-[4-(6-methoxy-4-piperazin-1-yl-2-naphthyl)pyrimidin-2-yl]-N,N-dimethylpropane-1,3-diamine]	188 to 190

Second part, the molecule after the results:

melting point [°C]	Structure (SMILES)
160 to 167	COc1cccc(CNc2nccc(-c3cc(N4CCN(CCCN5CCCC5)CC4)c4cc(OC)ccc4c3)n2)c1 (as salt: hydrochloride) [Compound 198, 4-(6-methoxy-4-(4-(3-(pyrrolidin-1-yl)propyl)piperazin-1-yl)naphthalen-2-yl)-N-(3-methoxybenzyl)pyrimidin-2-amine]
160 to 169	CCN(C)CCCN1CCN(c2cc(-c3ccnc(NCc4cccc(OC)c4)n3)cc3ccc(OC)cc23)CC1 (as salt: hydrochloride) [Compound 201, 4-(4-(4-(3-(ethyl(methyl)amino)propyl)piperazin-1-yl)-6-methoxynaphthalen-2-yl)-N-(3-methoxybenzyl)pyrimidin-2-amine]
94 to 97	CNc1nccc(-c2cc(NCCCSC(=N)N)c3cc(OC)ccc3c2)n1 [Compound 192, 3-({7-methoxy-3-[2-(methylamino)pyrimidin-4-yl]-1-naphthyl}amino)propyl imidothiocarbamate]
122 to 130	COc1cccc(CNc2nccc(-c3cc(N4CCN(CCCN5CCC5)CC4)c4cc(OC)ccc4c3)n2)c1 (as salt: hydrochloride) [Compound 200, 4-(4-(4-(3-(azetidin-1-yl)propyl)piperazin-1-yl)-6-methoxynaphthalen-2-yl)-N-(3-methoxybenzyl)pyrimidin-2-amine]
63 to 75	COc1cccc(CNc2nccc(-c3cc(N4CCN(CCCN5CCCCC5)CC4)c4cc(OC)ccc4c3)n2)c1 [Compound 194, 4-(6-methoxy-4-(4-(3-(piperidin-1-yl)propyl)piperazin-1-yl)naphthalen-2-yl)-N-(3-methoxybenzyl)pyrimidin-2-amine]
156 to 160	CCN(CC)CCCN1CCN(c2cc(-c3ccnc(NCc4cccc(OC)c4)n3)cc3ccc(OC)cc23)CC1 (as salt: hydrochloride) [Compound 197, 4-(4-(4-(3-(diethylamino)propyl)piperazin-1-yl)-6-methoxynaphthalen-2-yl)-N-(3-methoxybenzyl)pyrimidin-2-amine]
65 to 73	COc1cccc(CNc2nccc(-c3cc(N4CCN(CCCN5CCOCC5)CC4)c4cc(OC)ccc4c3)n2)c1 [Compound 196, 4-(6-methoxy-4-(4-(3-morpholinopropyl)piperazin-1-yl)naphthalen-2-yl)-N-(3-methoxybenzyl)pyrimidin-2-amine]
156 to 160	CCCN(C)CCCN1CCN(c2cc(-c3ccnc(NCc4cccc(OC)c4)n3)cc3ccc(OC)cc23)CC1 (as salt: hydrochloride) [Compound 199, 4-(6-methoxy-4-(4-(3-(methyl(propyl)amino)propyl)piperazin-1-yl)naphthalen-2-yl)-N-(3-methoxybenzyl)pyrimidin-2-amine]
155 to 161	COc1cccc(CNc2nccc(-c3cc(N4CCN(CCCN(C)C5CCCCC5)CC4)c4cc(OC)ccc4c3)n2)c1 (as salt: hydrochloride) [Compound 202, 4-(4-(4-(3-(cyclohexyl(methyl)amino)propyl)piperazin-1-yl)-6-methoxynaphthalen-2-yl)-N-(3-methoxybenzyl)pyrimidin-2-amine]
70 to 75	COc1cccc(CNc2nccc(-c3cc(N4CCN(CCCN(C)C)CC4)c4cc(OC)ccc4c3)n2)c1 [Compound 195, 4-(4-(4-(3-(dimethylamino)propyl)piperazin-1-yl)-6-methoxynaphthalen-2-yl)-N-(3-methoxybenzyl)pyrimidin-2-amine]

System: MDA-MB-231
Assay: MTS assay, MDA-MB-231
Format: cell-based
Settings: Homo sapiens, 72 hours, 1 Percent FBS

Structure (SMILES)	inhibition at 10 µM [%]
CNc1nccc(-c2cc(NC(=O)CN3CCN(CC(=O)N(C)c4ccccc4)CC3)c3cc(OC)ccc3c2)n1 [Compound 79, 2-{4-[2-({7-methoxy-3-[2-(methylamino)pyrimidin-4-yl]-1-naphthyl}amino)-2-oxoethyl]piperazin-1-yl}-N-methyl-N-phenylacetamide]	99
CNc1nccc(-c2cc(NC(=O)CN3CCN(CCc4cccs4)CC3)c3cc(OC)ccc3c2)n1 [Compound 46, N-{7-methoxy-3-[2-(methylamino)pyrimidin-4-yl]-1-naphthyl}-2-{4-[2-(2-thienyl)ethyl]piperazin-1-yl}acetamide]	99

System: DLD-1
Assay: MTS assay, DLD-1
Format: cell-based
Settings: Homo sapiens, 72 hours, 1 Percent FBS

Structure (SMILES)	inhibition at 10 µM [%]
CNc1nccc(-c2cc(NC(=O)CN3CCN(CC(=O)N(C)c4ccccc4)CC3)c3cc(OC)ccc3c2)n1 [Compound 79, 2-{4-[2-({7-methoxy-3-[2-(methylamino)pyrimidin-4-yl]-1-naphthyl}amino)-2-oxoethyl]piperazin-1-yl}-N-methyl-N-phenylacetamide]	98
CNc1nccc(-c2cc(NC(=O)CN3CCN(CCc4cccs4)CC3)c3cc(OC)ccc3c2)n1 [Compound 46, N-{7-methoxy-3-[2-(methylamino)pyrimidin-4-yl]-1-naphthyl}-2-{4-[2-(2-thienyl)ethyl]piperazin-1-yl}acetamide]	99
